Experiments:
[1] = Caco-2 Permeability Assay; format: in vitro ADME, human; conditions: human
Summary of the method: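 Bidirectional transport at 37 °C for 90 min, 10 μM donor concentration, with or without Pgp inhibitor, across 21-day Caco-2 monolayers with TEER >600 […] in HEPES-buffered HBSS, pH 7.4. LC-MS/MS of donor and receiver samples gives Papp, B→A/A→B efflux ratio and mass recovery.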

[2] = Stability in Simulated Gastric Fluid (SGF); format: in vitro ADME; parameters: key: % parent compound remaining relative to 0-minute sample
Summary of the method: (§1)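 Percent of parent remaining relative to time zero was measured by LC-MS/MS over 0–60 min at 37 °C, 150 rpm. Test compound was 2 μg/mL final in pepsin-containing SGF, pH 1.2, or pancreatin-containing SIF, pH 6.8. Degradation half-life was derived from the log-linear decay where enough points allowed.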

[3] = Stability in Simulated Intestinal Fluid (SIF); format: in vitro ADME; parameters: key: % parent compound remaining relative to 0-minute sample
Summary of the method: as §1

[4] = Plasma Stability; format: in vitro ADME, human
Summary of the method: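 Parent compound quantified by LC-MS/MS after acetonitrile precipitation, reported as percent of control remaining (triplicate). Incubation: 1 hour, 37° C, fresh human plasma, compound at 1 μM.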

[5] = Caco-2, pH 7.4, donor 10 μM, 90 minutes, 37° C., direction not given
[6] = % remaining at 1 h, SGF with pepsin pH 1.2, 2 μg/mL, 37° C.
[7] = % remaining at 1 h, SIF with pancreatin pH 6.8, 2 μg/mL, 37° C.
[8] = % remaining at 1 h, human plasma, 1 μM, 37° C.
[9] = Caco-2, pH 7.4, Caco-2 monolayer, the 17th table
[10] = % remaining at 1 h in simulated gastric fluid, the 17th table
[11] = % remaining at 1 h in simulated intestinal fluid, the 17th table
[12] = % remaining at 1 h in human plasma, the 17th table
[13] = Caco-2, pH 7.4, Caco-2 monolayer
[14] = simulated gastric fluid, at 1 h
[15] = simulated intestinal fluid, at 1 h

Papp at 90 min, 10 µM [1, 9] [×10⁻⁶ cm/s] | SGF [2, 10] [% remaining] | SIF [3, 11] [% remaining] | human Plasma stability [4, 12] [% remaining] | Papp at 90 min, 10 µM [1, 13] [×10⁻⁶ cm/s] | SGF [2, 14] [% remaining] | SIF [3, 15] | human Plasma stability ([4]; human plasma, at 1 h) [% remaining] | Compound | also measured
 |  |  |  |  |  |  |  | CC(C)OCCn1c(SC(C)OC(=O)N(C)c2ncccc2COC(=O)CN(C)C(=O)OC(C)(C)C)nc(=O)c2[nH]ccc21 (centres unmarked) [Example 212, (tert-Butoxycarbonyl-methyl-amino)-acetic acid 2-({1-[1-(2-isopropoxy-ethyl)-4-oxo-4,5-dihydro-1H-pyrrolo[3,2-d]pyrimidin-2-ylsulfanyl]-ethoxycarbonyl}-methyl-amino)-pyridin-3-ylmethyl ester] | Papp at 90 min, 10 µM [1, 5]: 0.87 ×10⁻⁶ cm/s; SGF [2, 6]: 89%; SIF [3, 7]: 97%; human Plasma stability [4, 8]: 97%
3.03 | 76 | 1 | 44 |  |  |  |  | CCCCCCOC(=O)OCn1ccc2c1c(=O)nc(S)n2CCOC(C)C [Example 213] | 
1.63 | 80 | 2 | 77 |  |  |  |  | CCCCCCOC(=O)OCSc1nc(=O)c2c(ccn2COC(=O)OCCCCCC)n1CCOC(C)C [Example 214] | 
0.214 | 94 | 1 | 88 |  |  |  |  | CCCCCCOC(=O)OCn1c(=O)c2c(ccn2COC(=O)OCCCCCC)n(CCOC(C)C)c1=S [Example 215] | 
4.59 | 91 | 1 | 1 |  |  |  |  | CCCCCOC(=O)OCn1ccc2c1c(=O)nc(S)n2CCOC(C)C [Example 216] | 
5.32 | 88 | 1 | 5 |  |  |  |  | CCCCCOC(=O)OCSc1nc(=O)c2c(ccn2COC(=O)OCCCCC)n1CCOC(C)C [Example 217] | 
0.65 | 100 | 2 | 74 |  |  |  |  | CCCCCOC(=O)OCn1c(=O)c2c(ccn2COC(=O)OCCCCC)n(CCOC(C)C)c1=S [Example 218] | 
0.847 | 98 | 23 | 21 |  |  |  |  | CCCCCCCOC(=O)OCn1ccc2c1c(=O)nc(S)n2CCOC(C)C [Example 219] | 
2.54 | 67 | 68 | 94 |  |  |  |  | CC(=O)OCc1ccccc1N(C)C(=O)OC(C)n1ccc2c1c(=O)nc(S)n2CCOC(C)C (centres unmarked) [Example 221] | 
2.05 | 98 | 88 | 22 |  |  |  |  | CC(=O)OCc1ccccc1N(C)C(=O)OCn1ccc2c1c(=O)nc(S)n2CCOC(C)C [Example 222] | 
37 | 87 | 70 | 99 |  |  |  |  | CC(C)NC(=O)n1ccc2c1c(=O)[nH]c(=S)n2CCOC(C)C [Example 223] | 
12.6 | 83 | 100 | 89 |  |  |  |  | CCCCNC(=O)n1ccc2c1c(=O)[nH]c(=S)n2CCOC(C)C [Example 224] | 
24.3 | 98 | 78 | 99 |  |  |  |  | CCCNC(=O)n1ccc2c1c(=O)[nH]c(=S)n2CCOC(C)C [Example 225] | 
35.1 | 91 | 83 | 97 |  |  |  |  | CCC(C)NC(=O)n1ccc2c1c(=O)[nH]c(=S)n2CCOC(C)C (centres unmarked) [Example 226] | 
1.67 | 100 | 95 | 99 |  |  |  |  | CC(C)OCCn1c(=S)[nH]c(=O)c2c1ccn2C(=O)Nc1ccccc1 [Example 227] | 
10.3 | 95 | 100 | 99 |  |  |  |  | CC(C)OCCn1c(=S)[nH]c(=O)c2c1ccn2C(=O)NCc1ccccc1 [Example 228] | 
 |  |  |  |  |  |  |  | CC(C)OCCn1c(=S)[nH]c(=O)c2c1ccn2C(=O)NC(C)(C)C [Example 229, N-tert-butyl-4-oxo-1-[2-(propan-2-yloxy)ethyl]-2-sulfanylidene-1H,2H,3H,4H,5H-pyrrolo[3,2-d]pyrimidine-5-carboxamide] | Papp at 90 min, 10 µM [1, 5]: 26.4 ×10⁻⁶ cm/s; SGF [2, 6]: 98%; SIF [3, 7]: 76%; human Plasma stability [4, 8]: 96%
 |  |  |  | 0.456 | 99 | 33% remaining | 2 | CCOC(=O)n1ccc2c1c(=O)[nH]c(=S)n2CCOC(C)C [Example 230] | 

Papp at 90 min, 10 µM [1, 9] [×10⁻⁶ cm/s] | SGF [2, 10] [% remaining] | SIF [3, 11] [% remaining] | human Plasma stability [4, 12] [% remaining] | Papp at 90 min, 10 µM [1, 13] [×10⁻⁶ cm/s] | SGF [2, 14] [% remaining] | SIF [3, 15] | human Plasma stability ([4]; human plasma, at 1 h) [% remaining] | Compound | also measured
 |  |  |  | 3.63 | 100 | 40% remaining | 0 | CC(C)OCCn1c(=S)[nH]c(=O)c2c1ccn2C(=O)OC(C)C [Example 231] | 
 |  |  |  | 0.256 | 98 | 3% remaining | 2 | CC(C)COC(=O)n1ccc2c1c(=O)[nH]c(=S)n2CCOC(C)C [Example 232] | 
 |  |  |  | 0.314 | 98 | 70% remaining | 2 | COC(=O)n1ccc2c1c(=O)[nH]c(=S)n2CCOC(C)C [Example 233] | 
 |  |  |  | < 0.33 | 34 | 8% remaining | 2 | CC(C)OCCn1c(=S)[nH]c(=O)c2c1ccn2COC(=O)Oc1cccc(F)c1 [Example 234] | 
 |  |  |  | < 0.369 | 60 | 1% remaining at | 2 | CC(C)OCCn1c(=S)[nH]c(=O)c2c1ccn2COC(=O)Oc1ccc(F)cc1 [Example 235] | 
 |  |  |  | 0.59 | 53 | 1% remaining at | 1 | Cc1ccc(OC(=O)OCn2ccc3c2c(=O)[nH]c(=S)n3CCOC(C)C)cc1 [Example 236] | 
 |  |  |  | 0.723 | 74 | 2% remaining | 1 | Cc1cccc(OC(=O)OCn2ccc3c2c(=O)[nH]c(=S)n3CCOC(C)C)c1 [Example 237] | 
 |  |  |  | < 0.339 | 13 | 1% remaining | 1 | CC(C)OCCn1c(=S)[nH]c(=O)c2c1ccn2COC(=O)Oc1ccccc1F [Example 238] | 
 |  |  |  | 11.7 | 99 | 96% remaining | 85 | CC(C)OCCn1c(SCOC(=O)N(C)c2ccccc2F)nc(=O)c2[nH]ccc21 [Example 239] | 
 |  |  |  | 15.4 | 99 | 97% remaining | 83 | CC(C)OCCn1c(SCOC(=O)N(C)c2ccccc2Cl)nc(=O)c2[nH]ccc21 [Example 240] | 
 |  |  |  | 10.5 | 57 | 97% remaining | 100 | COc1ccc(N(C)C(=O)OCSc2nc(=O)c3[nH]ccc3n2CCOC(C)C)cc1 [Example 241] | 
 |  |  |  | 15.6 | 52 | 96% remaining | 81 | Cc1ccccc1N(C)C(=O)OCSc1nc(=O)c2[nH]ccc2n1CCOC(C)C [Example 242] | 
 |  |  |  | 31.4 | 88 | 99% remaining | 99 | Cc1ccccc1N(C)C(=O)OCSc1nc(=O)c2c(ccn2COC(=O)N(C)c2ccccc2C)n1CCOC(C)C [Example 243] | 
 |  |  |  | 7.47 | 98 | 99% remaining | 52 | Cc1ccccc1N(C)C(=O)OCn1c(=O)c2c(ccn2COC(=O)N(C)c2ccccc2C)n(CCOC(C)C)c1=S [Example 244] | 
 |  |  |  | 21.6 | 99 | 99% remaining | 63 | Cc1cccc(N(C)C(=O)OCSc2nc(=O)c3[nH]ccc3n2CCOC(C)C)c1 [Example 245] | 
 |  |  |  | 21.7 | 98 | 99% remaining | 99 | Cc1cccc(N(C)C(=O)OCSc2nc(=O)c3c(ccn3COC(=O)N(C)c3cccc(C)c3)n2CCOC(C)C)c1 [Example 246] | 
 |  |  |  | 3.99 | 64 | 81% remaining | 31 | Cc1cccc(N(C)C(=O)OCn2c(=O)c3c(ccn3COC(=O)N(C)c3cccc(C)c3)n(CCOC(C)C)c2=S)c1 [Example 247] | 
